{"source": "patent US6262023A", "about": "“WD-40 derived peptides and uses thereof” (The Board of Trustees of the Leland Stanford Junior …, priority 1995, dated 2001)", "key": {"βPKC [1]": {"test_system": "βPKC", "test": "βPKC translocation (soluble vs particulate fraction) in Xenopus oocytes", "assay_type": "cell-based", "details": "50 μM peptide microinjected", "method": "Insulin causes the translocation of βPKC, but not other PKC isozymes, from a cytosolic form to a membrane-associated form, as evidenced by the relative levels of PKC in the soluble vs. the particulate fraction of oocyte homogenate. To assess the effects of RACK1 WD-40-derived peptides on insulin-induced PKC translocation, 50 nl of a 20 mM NaCl solution containing the indicated peptides were microinjected into Xenopus oocytes. The oocytes were then homogenized, and the relative amount of PKC in the soluble and particulate fractions was assayed. The protocol followed was a modification of a method described by Smith, et al. (1992).\nBatches of 50 oocytes were microinjected with either peptide rVI (SEQ ID NO:7; 50 μM; lanes 3, 4), peptide I (SEQ ID NO:1; 50 μM, lanes 7, 8) or injection solution (NaCl 20 mM, lanes 1,2 and 5,6). Homogenates from each batch were prepared 60 minutes after microinjection (lanes 1-4) or 60 minutes after addition of insulin (lanes 5-8). The homogenates were centrifuged at 10,000 g for 3 minutes, the upper layer (containing fat and yolk) was removed, and the remainder was frozen at -70° C. […] The amount of PKC in each fraction was determined by Western blot using anti-βPKC antibodies (1:1000 dilution; Seikagaku Kogyo, Tokyo, Japan). Bound primary antibodies were detected by chemiluminescence as described in Example 3, part C."}, "βPKC [2]": {"biological_target": "βPKC (Rattus norvegicus, UniProt P68403)", "sequence (P68403 whole entry)": "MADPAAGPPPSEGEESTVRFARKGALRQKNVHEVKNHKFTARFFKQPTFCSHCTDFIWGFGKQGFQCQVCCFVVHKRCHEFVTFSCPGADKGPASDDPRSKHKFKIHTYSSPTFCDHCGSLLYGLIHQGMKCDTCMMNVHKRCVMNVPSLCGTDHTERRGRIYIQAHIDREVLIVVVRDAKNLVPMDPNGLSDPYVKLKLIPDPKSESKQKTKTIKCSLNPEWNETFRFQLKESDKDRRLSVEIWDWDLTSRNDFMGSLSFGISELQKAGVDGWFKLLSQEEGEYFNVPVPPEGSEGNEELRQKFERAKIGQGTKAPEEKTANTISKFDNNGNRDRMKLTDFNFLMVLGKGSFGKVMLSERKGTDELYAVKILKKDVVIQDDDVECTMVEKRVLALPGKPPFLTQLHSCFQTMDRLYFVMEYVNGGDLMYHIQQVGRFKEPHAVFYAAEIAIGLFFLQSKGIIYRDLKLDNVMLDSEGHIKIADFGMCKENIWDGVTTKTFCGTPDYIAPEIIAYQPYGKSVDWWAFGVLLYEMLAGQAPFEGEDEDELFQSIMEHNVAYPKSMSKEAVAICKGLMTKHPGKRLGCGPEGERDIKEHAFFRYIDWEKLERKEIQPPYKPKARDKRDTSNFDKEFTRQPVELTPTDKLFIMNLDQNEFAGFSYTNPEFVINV", "test": "PKC overlay of immobilized peptides (slot-blot)", "assay_type": "binding", "parameters": "All the solutions contained 5 nM rat brain PKC in peptide overlay buffer; from tissue; host or cells: rat brain", "details": "DG and calcium", "method": "The binding of βPKC to peptide I (SEQ ID NO:1), peptide rVI (SEQ ID NO:7) and control peptide (SEQ ID NO:9) was assessed using a PKC overlay assay similar to that described in Example 3. Increasing amounts of peptides (0.5 μmole, 1.0 μmole, 5.0 μmole and 10.0 μmole) suspended in 20 mM NaCl were applied individually onto nitrocellulose using a slot-blot apparatus (Schleicher and Schuell, Keene, N.H.). The nitrocellulose membrane was washed three times, minutes per wash, in peptide overlay buffer and incubated for two hours in peptide overlay block buffer. The membrane was cut into sections and the sections were transferred to different PKC-containing solutions and incubated for 30 minutes at room temperature. All the solutions contained 5 nM rat brain PKC in peptide overlay buffer. Some solutions additionally contained PS, DG, and calcium. The membranes were then washed three times, 15 minutes per wash, in peptide overlay buffer and incubated in peptide overlay block buffer containing anti-βPKC monoclonal antibodies (1:1000 dilution; Seikagaku Kogyo, Tokyo, Japan). […]\nBinding of PKC was determined using chemiluminescence as described in Example 3, part C. Quantitation of PKC binding was carried out using a \"MICRO SCAN\" 1000 gel analyzer (Galai Inc., Yokneam, Israel)."}, "PKC": {"test_system": "PKC", "test": "PKC autophosphorylation", "assay_type": "biochemical, rat", "details": "10 μM peptide; no PS, DG, calcium", "method": "Rat brain PKC (~10 nM) was incubated with mild agitation in a final volume of 250 μl of overlay buffer, as in Example 1 either with anti-βPKC pseudosubstrate antibodies (1:10 dilution, Life Technologies, Gaithersburg, Md.) or with the indicated peptide (10 μM). Where indicated, PS (50 μg/ml), DG (0.8 μg/ml) and CaCl2 (1 mM) were also added. The amount of autophosphorylation was determined after 2 hours for the reaction with the anti-pseudosubstrate antibodies, or after 15 minutes for the other samples. 50 μl of a buffer comprised of 20 mM Tris-HCl (pH 7.5), 20 mM MgCl2, 20 μM ATP and 5 μci/ml [γ-^32 P]ATP. The mixture was incubated for 15 minutes at room temperature and the reaction was stopped by adding 60 μl sample buffer (see Example 9). The samples were then boiled for 10 minutes, loaded onto a 10% SDS-PAGE mini gel and electrophoresed. The gel was fixed with 50% methanol and 10% acetic acid for 1 hour, and the autophosphorylation of PKC was determined by autoradiography."}}, "data": [{"substance": "peptide I: 15-residue peptide homologous to a sequence in the sixth WD-40 repeat of RACK1; PKC antagonist (KGDYEKILVALCGGN)", "values": [{"measurement": "effect on insulin (hormone)-induced βPKC translocation", "setting": "βPKC [1]; 60 minutes after addition of insulin", "result": "inhibited insulin-induced βPKC translocation"}, {"measurement": "βPKC distribution / translocation in the absence of insulin treatment", "setting": "βPKC [1]; homogenate 60 minutes after microinjection", "result": "did not affect βPKC distribution"}, {"measurement": "peptide amount at which activated PKC bound to immobilized peptide (as low as)", "setting": "βPKC [2]; PKC with PS, 5 nM rat brain PKC, 0.5-10.0 μmole peptide on nitrocellulose", "result": "≤ 5", "unit": "µmol"}, {"measurement": "binding of unactivated PKC to immobilized peptide", "setting": "βPKC [2]; PKC without PS", "result": "did not bind"}, {"measurement": "induction of PKC autophosphorylation in the absence of PKC activators", "setting": "PKC", "result": "Neither peptide I nor control peptide induced PKC autophosphorylation"}]}]}
